In patent US20040171061A1 (priority 2000, published 2004):
pIC50: −log10 of the molar value.

What was measured:
[1] = biological target: autophagocytosis (luciferase uptake into isolated yeast vacuoles); experiment: In vitro autophagocytosis assay (luciferase uptake into isolated vacuoles); type: biochemical, Saccharomyces cerevisiae; details: standard uptake reaction, cell-free, sample without inhibitor as 100% reference, FIG. 7; read-out: IC50 for prevention of vesicle formation (luciferase uptake)
Description: This mixture was incubated for 1 h at 27° C. A 70 μl sample was chilled on ice, diluted with 300 μl 150 mM KCl in PS buffer, centrifuged (6800×g, 4 min, 2° C., fixed angle table top centrifuge), washed twice with 300 μl 150 mM KCl in PS buffer, and resuspended in 60 μl 150 mM KCl in PS buffer. 10 μl were used to check for complete vacuole recovery by determining the protein concentration or, alternatively, the activity of endogenous Pho8p (according to Haas et al., 1994). 40 μl of the suspension were treated with proteinase K (15 min, 0° C., 275 μg/ml, added from a 5 mg/ml stock in PS) to digest surface-bound luciferase. Digestion was terminated by adding an equal volume of freshly prepared PMSF solution (0.5 mM PMSF, 150 mM KCl, in PS buffer). Luciferase activity was determined from a 25 μl aliquot in a luminometer using a luciferase kit (Berthold Detection Systems, Pforzheim) according to the instructions of the supplier.

firefly luciferase = firefly luciferase (Photinus pyralis, UniProt P08659); experiment: Direct influence on luciferase activity (control); type: biochemical; details: not shown
Sequence of firefly luciferase (P08659 whole entry): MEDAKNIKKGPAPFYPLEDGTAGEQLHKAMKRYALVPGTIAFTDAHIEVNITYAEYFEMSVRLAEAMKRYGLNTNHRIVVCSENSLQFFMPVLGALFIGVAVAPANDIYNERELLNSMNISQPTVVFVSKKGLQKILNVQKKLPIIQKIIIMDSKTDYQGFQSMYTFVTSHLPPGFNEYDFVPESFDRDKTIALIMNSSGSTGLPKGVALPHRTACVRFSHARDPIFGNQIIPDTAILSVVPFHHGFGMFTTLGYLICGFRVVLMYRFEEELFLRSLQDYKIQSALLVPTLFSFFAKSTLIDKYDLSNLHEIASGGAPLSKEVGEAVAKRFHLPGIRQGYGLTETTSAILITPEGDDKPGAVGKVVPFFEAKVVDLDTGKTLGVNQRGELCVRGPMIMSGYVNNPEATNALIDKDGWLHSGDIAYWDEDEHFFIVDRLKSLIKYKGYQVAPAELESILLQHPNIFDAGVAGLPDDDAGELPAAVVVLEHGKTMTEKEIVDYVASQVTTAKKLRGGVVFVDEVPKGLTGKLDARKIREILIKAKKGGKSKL

[2] = system: autophagocytosis in yeast; details: nocodazole treatment disassembling microtubules (Kirisako et al. 1999); cited from earlier work

Row | SMILES | pIC50 [1] | influence on luciferase activity by itself (firefly luciferase) | block of autophagocytosis in yeast [2]
1 | Nc1nc2c(ncn2[C@@H]2O[C@H](COP(=O)(O)OP(=O)(O)OP(O)(O)=S)[C@@H](O)[C@H]2O)c(=O)[nH]1 [GTPγS] | 4.00 | did not influence luciferase activity by itself | 
2 | COC(=O)Nc1nc2ccc(C(=O)c3cccs3)cc2[nH]1 [nocodazole] |  |  | does not block autophagocytosis
